Experimental data taken from ChEMBL document CHEMBL4420071, “Method for treating skin with retinoids and retinoid boosters” (2013).

Assays:
Homo sapiens [1] = species: Homo sapiens; assay: Inhibition of transglutaminase in human keratinocytes assessed as mean transglutaminase activity level at 3 10^-5M in presence of 10 uM retinal relative to retinal alone; format: cell-based; design: scale not given: the % may be the effect or the level left
Homo sapiens [2] = species: Homo sapiens; assay: Inhibition of transglutaminase in human keratinocytes assessed as mean transglutaminase activity level at 1.1 10^-6M in presence of 10 uM retinal relative to retinal alone; format: cell-based; design: scale not given: the % may be the effect or the level left
Homo sapiens [3] = species: Homo sapiens; assay: Inhibition of transglutaminase in human keratinocytes assessed as mean transglutaminase activity level at 3.3 10^-6M in presence of 10 uM retinal relative to retinal alone; format: cell-based; design: scale not given: the % may be the effect or the level left
Homo sapiens [4] = species: Homo sapiens; assay: Inhibition of transglutaminase in human keratinocytes assessed as mean transglutaminase activity level at 8.2 10^-8M in presence of 10 uM retinal relative to retinal alone; format: cell-based; design: scale not given: the % may be the effect or the level left
Homo sapiens [5] = species: Homo sapiens; assay: Inhibition of transglutaminase in human keratinocytes assessed as mean transglutaminase activity level at 1.23 10^-7M in presence of 10 uM retinal relative to retinal alone; format: cell-based; design: scale not given: the % may be the effect or the level left
Homo sapiens [6] = species: Homo sapiens; assay: Inhibition of transglutaminase in human keratinocytes assessed as mean transglutaminase activity level at 1 10^-5M in presence of 10 uM retinal relative to retinal alone; format: cell-based; design: scale not given: the % may be the effect or the level left
Homo sapiens [7] = species: Homo sapiens; assay: Inhibition of transglutaminase in human keratinocytes assessed as mean transglutaminase activity level at 3.73 10^-7M in presence of 10 uM retinal relative to retinal alone; format: cell-based; design: scale not given: the % may be the effect or the level left
Homo sapiens [8] = species: Homo sapiens
Description: Inhibition of transglutaminase in human keratinocytes in presence of 10 uM retinal relative to retinal alone

Homo sapiens [9] = species: Homo sapiens; assay: Inhibition of transglutaminase in human keratinocytes assessed as mean transglutaminase activity level at 4.1 10^-8M in presence of 10 uM retinal relative to retinal alone; format: cell-based; design: scale not given: the % may be the effect or the level left
Homo sapiens [10] = species: Homo sapiens; assay: Inhibition of transglutaminase in human keratinocytes assessed as mean transglutaminase activity level at 1.65 10^-9M in presence of 10 uM retinal relative to retinal alone; format: cell-based; design: scale not given: the % may be the effect or the level left
Rattus norvegicus = species: Rattus norvegicus; assay: Inhibition of retinal reductase in Sprague-Dawley rat liver microsomes at 100 uM using all-trans retinaldehyde and NADPH by HPLC analysis relative to control
Homo sapiens [11] = species: Homo sapiens; assay: Inhibition of transglutaminase in human keratinocytes assessed as mean transglutaminase activity level at 3.29 10^-9M in presence of 10 uM retinal relative to retinal alone; format: cell-based; design: scale not given: the % may be the effect or the level left
[12] = biological target: T1, Diacylglycerol O-acyltransferase 1 (Bos taurus) (UniProt Q8MK44); settings: at 100 µM
T1 sequence (whole entry): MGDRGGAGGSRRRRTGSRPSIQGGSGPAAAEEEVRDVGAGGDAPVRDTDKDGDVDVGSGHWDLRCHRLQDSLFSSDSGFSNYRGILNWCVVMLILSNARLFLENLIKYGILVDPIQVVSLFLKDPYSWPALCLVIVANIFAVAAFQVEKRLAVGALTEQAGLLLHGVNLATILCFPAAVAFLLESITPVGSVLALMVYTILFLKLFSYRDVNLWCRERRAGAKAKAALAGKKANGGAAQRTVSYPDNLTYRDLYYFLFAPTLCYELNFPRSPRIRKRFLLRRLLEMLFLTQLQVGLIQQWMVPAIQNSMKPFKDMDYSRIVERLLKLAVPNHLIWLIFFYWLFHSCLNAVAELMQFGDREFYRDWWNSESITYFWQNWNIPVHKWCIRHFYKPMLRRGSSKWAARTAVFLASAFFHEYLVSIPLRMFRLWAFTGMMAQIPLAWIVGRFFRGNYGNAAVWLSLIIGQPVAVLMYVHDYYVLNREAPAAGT
Description: Inhibition of ARAT in bovine RPE microsomes at 100 uM using retinol substrate in presence of dilauroyl-phosphatidyl choline incubated for 5 mins by HPLC analysis relative to control

[13] = biological target: T2, Lecithin retinol acyltransferase (Bos taurus) (UniProt Q9BGL2); settings: at 100 µM
T2 sequence (whole entry): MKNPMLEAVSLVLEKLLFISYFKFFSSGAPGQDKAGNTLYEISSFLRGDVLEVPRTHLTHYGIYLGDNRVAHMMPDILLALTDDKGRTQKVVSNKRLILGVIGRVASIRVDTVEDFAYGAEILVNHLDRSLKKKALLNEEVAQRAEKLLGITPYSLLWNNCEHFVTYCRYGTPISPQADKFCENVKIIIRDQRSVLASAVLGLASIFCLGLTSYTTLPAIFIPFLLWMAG
Description: Inhibition of LRAT in bovine RPE microsomes at 100 uM using retinol substrate in presence of Palmitoyl-CoA incubated for 5 mins by HPLC analysis relative to control

[14] = biological target: T1, Diacylglycerol O-acyltransferase 1 (Bos taurus); assay: Inhibition of ARAT in bovine RPE microsomes at 10 uM using retinol substrate in presence of dilauroyl-phosphatidyl choline incubated for 5 mins by HPLC analysis relative to control
[15] = biological target: T2, Lecithin retinol acyltransferase (Bos taurus); assay: Inhibition of LRAT in bovine RPE microsomes at 10 uM using retinol substrate in presence of Palmitoyl-CoA incubated for 5 mins by HPLC analysis relative to control
Homo sapiens [16] = species: Homo sapiens; assay: Inhibition of transglutaminase in human keratinocytes assessed as mean transglutaminase activity level at 8.2 10^-6M in presence of 10 uM retinal relative to retinal alone; format: cell-based; design: scale not given: the % may be the effect or the level left
Homo sapiens [17] = species: Homo sapiens; assay: Inhibition of transglutaminase in human keratinocytes assessed as mean transglutaminase activity level at 1.1 10^-8M in presence of 10 uM retinal relative to retinal alone; format: cell-based; design: scale not given: the % may be the effect or the level left
[18] = biological target: T3, Cellular retinoic acid-binding protein 2 (Homo sapiens) (UniProt P29373); assay: Inhibition of radioactive all-trans retinoic acid binding to CRABP2 (unknown origin) expressed in Escherichia coli BLR(DE3)pLys incubated for 1 hr by scintillation counting assay; settings: concentration not given here
T3 sequence (whole entry): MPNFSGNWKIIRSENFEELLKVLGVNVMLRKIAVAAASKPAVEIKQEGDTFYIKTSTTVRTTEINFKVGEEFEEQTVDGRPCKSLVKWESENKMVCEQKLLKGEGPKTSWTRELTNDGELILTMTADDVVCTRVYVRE

Homo sapiens [19] = species: Homo sapiens; assay: Inhibition of transglutaminase in human keratinocytes assessed as mean transglutaminase activity level at 5.0 10^-8M in presence of 10 uM retinal relative to retinal alone; format: cell-based; design: scale not given: the % may be the effect or the level left
Homo sapiens [20] = species: Homo sapiens; assay: Inhibition of transglutaminase in human keratinocytes assessed as mean transglutaminase activity level at 1.23 10^-5M in presence of 10 uM retinal relative to retinal alone; format: cell-based; design: scale not given: the % may be the effect or the level left
Homo sapiens [21] = species: Homo sapiens; assay: Inhibition of transglutaminase in human keratinocytes assessed as mean transglutaminase activity level at 1.1 10^-4M in presence of 10 uM retinal relative to retinal alone; format: cell-based; design: scale not given: the % may be the effect or the level left
Homo sapiens [22] = species: Homo sapiens; assay: Inhibition of transglutaminase in human keratinocytes assessed as mean transglutaminase activity level at 1.65 10^-7M in presence of 10 uM retinal relative to retinal alone; format: cell-based; design: scale not given: the % may be the effect or the level left
Homo sapiens [23] = species: Homo sapiens; assay: Inhibition of transglutaminase in human keratinocytes assessed as mean transglutaminase activity level at 3.73 10^-4M in presence of 10 uM retinal relative to retinal alone; format: cell-based; design: scale not given: the % may be the effect or the level left
Homo sapiens [24] = species: Homo sapiens; assay: Inhibition of transglutaminase in human keratinocytes assessed as mean transglutaminase activity level at 4.1 10^-5M in presence of 10 uM retinal relative to retinal alone; format: cell-based; design: scale not given: the % may be the effect or the level left

CC1(C)[C@@H](O)CC[C@]2(C)[C@H]3C(=O)C=C4[C@@H]5C[C@@](C)(C(=O)O)CC[C@]5(C)CC[C@@]4(C)[C@]3(C)CC[C@@H]12
Activity (Homo sapiens [1]): -0.3% | Activity (Homo sapiens [2]): 96.4% | Activity (Homo sapiens [3]): 2.5% | Activity (Homo sapiens [4]): 225% | Activity (Homo sapiens [5]): 112% | Activity (Homo sapiens [6]): 0.7% | Activity (Homo sapiens [7]): 120% | IC20 (Homo sapiens [8]): 5.96 ×10⁻⁶ M | Activity (Homo sapiens [9]): 93% | Activity (Homo sapiens [10]): 103% | inhibition (Rattus norvegicus): 38% | Activity (Homo sapiens [11]): 100%

CC1=CC[C@H](CC[C@H](C)CO)C1(C)C
inhibition [12]: 70% | inhibition [13]: 75%

CCCCCCCCCCCC1=NCCN1CCO
IC20 (Homo sapiens [8]): 2.69 ×10⁻⁷ M

CC1(C)[C@@H](OC(=O)CCC(=O)O)CC[C@]2(C)[C@H]3C(=O)C=C4[C@@H]5C[C@@](C)(C(=O)O)CC[C@]5(C)CC[C@@]4(C)[C@]3(C)CC[C@@H]12
Activity (Homo sapiens [1]): -7.1% | Activity (Homo sapiens [2]): 158% | Activity (Homo sapiens [3]): 51.7% | Activity (Homo sapiens [4]): 112% | Activity (Homo sapiens [5]): 81% | Activity (Homo sapiens [6]): 27.3% | Activity (Homo sapiens [7]): 126% | IC20 (Homo sapiens [8]): 2 ×10⁻⁷ M | Activity (Homo sapiens [9]): 135% | Activity (Homo sapiens [10]): 77.8% | inhibition (Rattus norvegicus): 26% | Activity (Homo sapiens [11]): 64%

CC(=O)/C(C)=C/C1C(C)=CCCC1(C)C (centres undefined)
inhibition [13]: 38%

CC1=CCCC(C)(C)C1/C=C/C(=O)CC(C)C (centres undefined)
inhibition [12]: 8% | inhibition [13]: 45%

CCC(=O)C=CC1C(C)=CCCC1(C)C (centres undefined)
inhibition [12]: 67% | inhibition [13]: 77%

CC(=O)c1cc2c(cc1C)C(C)(C)C(C)CC2(C)C (centres undefined)
inhibition [13]: 33%

CC(C)=CCCC(C)=CCCC(C)=CCO
inhibition [14]: 23% | inhibition [15]: 10% | IC20 (Homo sapiens [8]): 7.82 ×10⁻⁵ M | inhibition [12]: 53% | inhibition [13]: 53%

C/C=C/C(=O)C1C(C)C=CCC1(C)C (centres undefined)
inhibition [15]: 64% | inhibition [13]: 95%

CC(C)=CCC/C(C)=C/CO
IC20 (Homo sapiens [8]): 4.72 ×10⁻³ M

C/C=C\C(=O)C1C(C)=CCCC1(C)C (centres undefined)
inhibition [14]: 67% | inhibition [15]: 87% | IC20 (Homo sapiens [8]): 1.69 ×10⁻⁴ M | inhibition [12]: 83% | inhibition [13]: 98%

CCCCCCCCCCCCCC(=O)N(C)CC(=O)O
inhibition [12]: 41% | inhibition [13]: 11%

O=C(O)CCCCCCCCCCCCCCC(=O)O
Activity (Homo sapiens [16]): 114% | Activity (Homo sapiens [17]): 70% | inhibition [18]: > 50% | Activity (Homo sapiens [19]): 74% | IC20 (Homo sapiens [8]): 8.4 ×10⁻⁵ M | Activity (Homo sapiens [20]): 130% | Activity (Homo sapiens [21]): 14.2% | Activity (Homo sapiens [22]): 95% | Activity (Homo sapiens [23]): 43.4% | Activity (Homo sapiens [24]): 105%

CC(=O)/C=C/C1C(C)=CCCC1(C)C (centres undefined)
IC20 (Homo sapiens [8]): 1.42 ×10⁻⁴ M

CCCCC/C=C\C/C=C\CCCCCCCC(=O)N(CCO)CCO
inhibition [14]: 12% | inhibition [15]: 11% | inhibition [12]: 43% | inhibition [13]: 51%

CCN(CC)CC(=O)Nc1c(C)cccc1C
inhibition [13]: 0%

CC(C)=CCC/C(C)=C/CC/C(C)=C/CC/C(C)=C/CO
inhibition [14]: 38% | inhibition [15]: 16% | inhibition [12]: 81% | inhibition [13]: 77%

CCC=CCCC=CC=O
inhibition [12]: 20%

CCOC(=O)C1=C(C)C=CCC1(C)C
inhibition [13]: 49%

CCCCCCCC/C=C\CCCCCCCC[N+](C)(C)CC(=O)[O-]
IC20 (Homo sapiens [8]): 1.08 ×10⁻⁵ M | inhibition [12]: 47%

O=c1ccc2ccccc2[nH]1
IC20 (Homo sapiens [8]): 1.7 ×10⁻⁴ M

O=c1c(O)c(-c2ccc(O)c(O)c2)oc2cc(O)cc(O)c12
IC20 (Homo sapiens [8]): 5.11 ×10⁻⁵ M
